Measurements: PMC4464910 (Pharmacological research : the official journal of the …, 2015)

Tests used:
[1] = system: mechanical allodynia; format: in vivo, Sprague-Dawley rats; settings: for ED50 on mechanical allodynia: i.p., time point 1 hour
[2] = system: heat hyperalgesia; assay: carrageenan-induced heat hyperalgesia; format: in vivo, CD1 mice; settings: mice, oral, time point 4 hours
[3] = system: 2-AG hydrolysis; assay: 2-AG hydrolysis colorimetric assay in rat brain microsomes; format: biochemical; settings: read-out: 2-AG hydrolysis IC50, n=3
[4] = system: carrageenan-induced edema; assay: carrageenan-induced paw edema; format: in vivo, CD1 mice; settings: mice, 10 mg kg^−1 oral, P<.001
[5] = system: mechanical hyperalgesia; assay: carrageenan-induced mechanical hyperalgesia; format: in vivo, CD1 mice; settings: mice, oral, time point 4 hours

Row | Compound | ED50 on mechanical allodynia ([1]; diabetic rats) [mg/kg] | effect on allodynia at 0.3 mg kg^−1 ([1]; neuropathic rats, 0.3 mg kg^−1 dose) | ED50 on heat hyperalgesia [2] [mg/kg] | IC50 [3] [µM] | suppression of edema 24 hours after application [4] | ED50 on mechanical hyperalgesia [5] [mg/kg] | effect on allodynia compared with TPPU and URB937 at the same dose ([1]; diabetic rats, 3 mg kg^−1 i.p.)
1 | NC(=O)c1cccc(-c2cc(OC(=O)NC3CCCCC3)ccc2O)c1 [URB937] | 0.3 | attenuated allodynia | 0.2 | > 100 | – | – | –
2 | CCC(=O)N1CCC(NC(=O)Nc2ccc(OC(F)(F)F)cc2)CC1 [TPPU] | 0.1 | – | 0.5 | > 100 | still statistically detectable | 1 | –
3 | O=C(Nc1cccc(OC(F)(F)F)c1)N[C@H]1CC[C@H](Oc2ccc(C(=O)O)cc2)CC1 [t-TUCB, trans-4-[4-(3-trifluoromethoxyphenyl-l-ureido)-cyclohexyloxy]-benzoic acid] | – | – | – | – | – | – | similar
